Literature values, collected in patent publication US20090022826A1, “Multi-step method of pain and/or inflammation treatment” (priority 2007, published 2009).

solubility in alcohol (alcohol): soluble
solubility in mineral oil (mineral oil): insoluble
solubility in vegetable oil (vegetable oil): partially soluble
solubility in water (water): soluble
Compound: CCOCCOCCO [Ethoxydiglycol, diethylene glycol monoethyl ether]
